Laboratory results reported in US8481527B2, “Benzamide derivatives as bradykinin antagonists” (Richter Gedeon Nyrt., priority 2006, dated 2013).
Counter-ions that a name gives are not always drawn.

Columns and labels:
[1] = molecular target: T1, recombinant human B1 receptors (Homo sapiens, UniProt P46663); test: Functional assay: antagonist potency by cytosolic calcium measurement in CHO-B1 cells (agonist LysDABK); assay type: cell-based; details: CHO-B1 cells, LysDABK at EC80, fluo-4 [Ca2+]i; read-out: B1 func.
T1 construct: host or cells: CHO (CHO-B1)
T1 sequence (P46663 1-353): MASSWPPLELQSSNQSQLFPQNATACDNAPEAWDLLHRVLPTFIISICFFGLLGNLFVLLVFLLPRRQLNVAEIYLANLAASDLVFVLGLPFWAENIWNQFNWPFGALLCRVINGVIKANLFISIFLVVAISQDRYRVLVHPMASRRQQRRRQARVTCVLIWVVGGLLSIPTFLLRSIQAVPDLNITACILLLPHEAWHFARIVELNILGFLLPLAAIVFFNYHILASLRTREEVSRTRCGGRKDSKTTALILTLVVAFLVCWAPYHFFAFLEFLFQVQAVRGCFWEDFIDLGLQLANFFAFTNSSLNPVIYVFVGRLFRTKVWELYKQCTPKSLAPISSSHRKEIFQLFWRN
Description: Assessment of Antagonist Potency at B1 and B2 Receptors In Vitro by Measurement of Cytosolic Calcium Ion Concentration with a Plate Reader Fluorimeter in Cells Expressing Recombinant Human B1 or B2 Receptors
Chinese hamster ovary (CHO) cells stably expressing recombinant human B1 (CHO-B1, Euroscreen) or B2 (CHO-B2, Perkin-Elmer) receptors were cultured in Dulbecco's Modified Eagle's Medium (DMEM) containing 10% Fetal Calf Serum (FCS), 100 U/ml penicillin, 0.1 mg/ml streptomycin, 0.25 μg/ml amphotericin B, 1% Minimum Essential Medium Eagle (MEM), non essential amino acid solution, 600 μg/ml G418, 1% pyruvate (for the B2 cell line). Cells were kept at 37° C. in a humidified incubator in an atmosphere of 5% CO2/95% air and were passaged 1:4 three times a week. Cells were plated at 1.5-2.5×10^4 cell/well on standard 96-well microplates, measurements of cytosolic calcium ion concentration ([Ca^2+]i) were carried out 1-2 days after cell plating.
Measurements of [Ca^2+]i were carried out on CHO-B1 and CHO-B2 cells stably expressing human B1 and B2 receptors, respectively. Cells were grown in standard 96-well microplates and before the measurement were loaded with a fluorescent Ca^2+-sensitive dye, fluo-4/AM (2 μM): after removing the culture medium the dye was added to the cells (dissolved in assay buffer: 145 mM NaCl, 5 mM KCl, 2 mM MgCl2, 2 mM CaCl2, 10 mM HEPES, 20 mM D-glucose, 2 mM probenecid, 100 μl/well) and cells were incubated at 37° C. in a humidified incubator in an atmosphere of 5% CO2/95% air for 40-120 min. To stop dye loading cells were washed twice with assay buffer. After washing, various concentrations of the test compounds (diluted in extracellular medium from a DMSO stock solution, final DMSO concentration was <0.1%) or buffer were added to each well depending on the experimental setup. After incubation at 37° C. for 20-25 min. baseline and agonist-evoked changes of [Ca^2+]i were measured column by column with a plate reader fluorimeter (Fluoroskan Ascent, Labsystems). Excitation and detection of emission was carried out from the bottom of the plate. Filters used for Fluo-4: excitation filter—485 nm, emission filter—538 nm. The whole measurement process was performed at 37° C. and was controlled by custom software. Inhibitory potency of the test compounds was assessed by measuring the reduction in the agonist-evoked [Ca^2+]i-elevation in the presence of different concentrations of the compounds. The agonists were LysDABK for CHO-B1, and bradykinin for CHO-B2 cells. Agonists were applied at an EC80 concentration, the EC80-values were derived from daily determined dose-response curves. Fluorescence data were expressed as ΔF/F (fluorescence change normalized to baseline). All treatments on a single plate were measured in multiple wells. Data from all wells with the same treatment were averaged and the average values were used for analysis. Inhibitory potency of a compound at a single concentration point was expressed as percent inhibition of the control agonist response. Sigmoidal concentration-inhibition curves were fitted to the data (derived from at least three independent experiments) and IC50-values were determined as the concentration that produces half of the maximal inhibition caused by the compound.

[2] = molecular target: T2, human recombinant bradykinin B1 receptor (Homo sapiens, UniProt P46663); test: Human recombinant bradykinin B1 receptor binding; details: CHO cell membranes, [3H]-[Des-Arg10] Kallidin radioligand; read-out: B1 binding
T2 construct: purchased Euroscreen ES-091; host or cells: CHO cells
T2 sequence (P46663 1-353): T1 sequence (P46663 1-353)
Description: Receptor Binding Assays 1. Human Recombinant Bradykinin B1 Receptor Binding
Binding assays were carried out on human recombinant bradykinin) receptors (expressed in CHO cells) according to the Euroscreen Technical Data Sheet (Cat.No.:ES-091). 20 μg protein/tube was incubated with [3,4-prolyl-3,4-^3H(N)]-[Des-Arg^10] Kallidin as radioligand. Non specific binding was determined in the presence of 10 μM Lys-des-Arg^9-Bradykinin. The final incubation volume was 250 μl. Samples were incubated for 15 min. at 25° C. then were rapidly vacuum filtered through GF/B filters presoaked for at least 1 h in 0.5% PEI. Radioactivity was determined by liquid scintillation spectroscopy.

| Structure (SMILES) | IC50 [1] [nM] | Ki [2] [nM] |
| --- | --- | --- |
| CN(C)CCCN1CCN(C(=O)CNC(=O)c2ccc(S(=O)(=O)Nc3ccccc3Oc3ccccc3)cc2)CC1 [Example 2.6, N-{2-[4-(3-Dimethylamino-propyl)-piperazin-1-yl]-2-oxo-ethyl}-4-(2-phenoxy-phenylsulfamoyl)-benzamide] | < 20 | < 20 |
| O=C(NCC(=O)N1CCC(CCN2CCCC2)CC1)c1ccc(S(=O)(=O)Nc2ccccc2Oc2ccccc2)cc1 [Example 2.7, N-{2-Oxo-2-[4-(2-pyrrolidin-1-yl-ethyl)-piperidin-1-yl]-ethyl}-4-(2-phenoxy-phenylsulfamoyl)-benzamide] | < 20 | < 20 |
| O=C(NCC(=O)N1CCC(O)CC1)c1ccc(S(=O)(=O)Nc2ccccc2Oc2ccccc2)cc1 [Example 2.10, N-[2-(4-Hydroxy-piperidin-1-yl)-2-oxo-ethyl]-4-(2-phenoxy-phenylsulfamoyl)-benzamide] | 20 to 100 | 20 to 100 |
| NC(=O)C1CCN(C(=O)CNC(=O)c2ccc(S(=O)(=O)Nc3ccccc3Oc3ccccc3)cc2)CC1 [Example 2.15, 1-{2-[4-(2-Phenoxy-phenylsulfamoyl)-benzoylamino]-acetyl}-piperidine-4-carboxylic acid amide] | 20 to 100 | 20 to 100 |
| O=C(NCC(=O)N1CCC(CO)CC1)c1ccc(S(=O)(=O)Nc2ccccc2Oc2ccccc2)cc1 [Example 2.22, N-[2-(4-Hydroxymethyl-piperidin-1-yl)-2-oxo-ethyl]-4-(2-phenoxy-phenylsulfamoyl)-benzamide] | < 20 | < 20 |
| CN1CCC(N2CCN(C(=O)CNC(=O)c3ccc(S(=O)(=O)Nc4ccccc4Oc4ccccc4)cc3)CC2)CC1 [Example 2.34, N-{2-[4-(1-Methyl-piperidin-4-yl)-piperazin-1-yl]-2-oxo-ethyl}-4-(2-phenoxy-phenylsulfamoyl)-benzamide] | < 20 | < 20 |
| O=C(NCC(=O)N1CCN(CCN2CCCC2)CC1)c1ccc(S(=O)(=O)Nc2ccccc2C(=O)c2ccccc2)cc1 [Example 3.1, 4-(2-Benzoyl-phenylsulfamoyl)-N-{2-oxo-2-[4-(2-pyrrolidin-1-yl-ethyl)-piperazin-1-yl]-ethyl}-benzamide] | < 20 | < 20 |
| CN(C)CCN1CCN(C(=O)CNC(=O)c2ccc(S(=O)(=O)Nc3ccccc3C(=O)c3ccccc3)cc2)CC1 [Example 3.2, 4-(2-Benzoyl-phenylsulfamoyl)-N-{2-[4-(2-dimethylamino-ethyl)-piperazin-1-yl]-2-oxo-ethyl}-benzamide] | < 20 | < 20 |
| O=C(NCC(=O)N1CCCCC1)c1ccc(S(=O)(=O)Nc2ccccc2C(=O)c2ccccc2)cc1 [Example 3.3, 4-(2-Benzoyl-phenylsulfamoyl)-N-(2-oxo-2-piperidin-1-yl-ethyl)-benzamide] | < 20 | < 20 |
| O=C(NCC(=O)N1CCCCCC1)c1ccc(S(=O)(=O)Nc2ccccc2C(=O)c2ccccc2)cc1 [Example 3.4, N-(2-Azepan-1-yl-2-oxo-ethyl)-4-(2-benzoyl-phenylsulfamoyl)-benzamide] | < 20 | < 20 |
| N#CC1CCN(C(=O)CNC(=O)c2ccc(S(=O)(=O)Nc3ccccc3C(=O)c3ccccc3)cc2)CC1 [Example 3.5, 4-(2-Benzoyl-phenylsulfamoyl)-N-[2-(4-cyano-piperidin-1-yl)-2-oxo-ethyl]-benzamide] | < 20 | < 20 |
| O=C(NCC(=O)N1CCC(C(F)(F)F)CC1)c1ccc(S(=O)(=O)Nc2ccccc2C(=O)c2ccccc2)cc1 [Example 3.6, 4-(2-Benzoyl-phenylsulfamoyl)-N-[2-oxo-2-(4-trifluoromethyl-piperidin-1-yl)-ethyl]-benzamide] | < 20 | < 20 |
| CC1CCN(C(=O)CNC(=O)c2ccc(S(=O)(=O)Nc3ccccc3C(=O)c3ccccc3)cc2)CC1 [Example 3.7, 4-(2-Benzoyl-phenylsulfamoyl)-N-[2-(4-methyl-piperidin-1-yl)-2-oxo-ethyl]-benzamide] | < 20 | < 20 |
| CN1CCCC(CN2CCN(C(=O)CNC(=O)c3ccc(S(=O)(=O)Nc4ccccc4C(=O)c4ccccc4)cc3)CC2)C1 (centres unmarked) [Example 3.8, 4-(2-Benzoyl-phenylsulfamoyl)-N-{2-[4-(1-methyl-piperidin-3-ylmethyl)-piperazin-1-yl]-2-oxo-ethyl}-benzamide] | < 20 | < 20 |
| O=C(NCC(=O)N1CCC(CO)CC1)c1ccc(S(=O)(=O)Nc2ccccc2C(=O)c2ccccc2)cc1 [Example 3.9, 4-(2-Benzoyl-phenylsulfamoyl)-N-[2-(4-hydroxymethyl-piperidin-1-yl)-2-oxo-ethyl]-benzamide] | < 20 | < 20 |
| O=C(NCC(=O)N1CCC(CCO)CC1)c1ccc(S(=O)(=O)Nc2ccccc2C(=O)c2ccccc2)cc1 [Example 3.10, 4-(2-Benzoyl-phenylsulfamoyl)-N-{2-[4-(2-hydroxy-ethyl)-piperidin-1-yl]-2-oxo-ethyl}-benzamide] | < 20 | < 20 |
| O=C(NCC(=O)N1CCN(CCCN2CCCC2)CC1)c1ccc(S(=O)(=O)Nc2ccccc2C(=O)c2ccccc2)cc1 [Example 3.13, 4-(2-Benzoyl-phenylsulfamoyl)-N-{2-oxo-2-[4-(3-pyrrolidin-1-yl-propyl)-piperazin-1-yl]-ethyl}-benzamide] | < 20 | < 20 |
| CN(C)CCCN1CCN(C(=O)CNC(=O)c2ccc(S(=O)(=O)Nc3ccccc3C(=O)c3ccccc3)cc2)CC1 [Example 3.14, 4-(2-Benzoyl-phenylsulfamoyl)-N-{2-[4-(3-dimethylamino-propyl)-piperazin-1-yl]-2-oxo-ethyl}-benzamide] | < 20 | < 20 |
| O=C(NCC(=O)N1CCC(CCN2CCCC2)CC1)c1ccc(S(=O)(=O)Nc2ccccc2C(=O)c2ccccc2)cc1 [Example 3.15, 4-(2-Benzoyl-phenylsulfamoyl)-N-{2-oxo-2-[4-(2-pyrrolidin-1-yl-ethyl)-piperidin-1-yl]-ethyl}-benzamide] | < 20 | < 20 |
| O=C(NCC(=O)N1CCC(O)CC1)c1ccc(S(=O)(=O)Nc2ccccc2C(=O)c2ccccc2)cc1 [Example 3.16, 4-(2-Benzoyl-phenylsulfamoyl)-N-[2-(4-hydroxy-piperidin-1-yl)-2-oxo-ethyl]-benzamide] | < 20 | < 20 |
| NC(=O)C1CCN(C(=O)CNC(=O)c2ccc(S(=O)(=O)Nc3ccccc3C(=O)c3ccccc3)cc2)CC1 [Example 3.17, 1-{2-[4-(2-Benzoyl-phenylsulfamoyl)-benzoylamino]-acetyl}-piperidine-4-carboxylic acid amide] | < 20 | < 20 |
| O=C(NCC(=O)N1CCCNCC1)c1ccc(S(=O)(=O)Nc2ccccc2Oc2ccccc2)cc1 [Example 11.1, N-(2-[1,4]-Diazepan-1-yl-2-oxo-ethyl)-4-(2-phenoxy-phenylsulfamoyl)-benzamide hydrochloride] | < 20 | 20 to 100 |
